Assay results published in ChEMBL document CHEMBL1201862, “PubChem BioAssay data set” (2004).
Several values for one entry are separate records, joined by “and”; a condition that tells them apart may be missing. Equal values may be shown once.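 Method: 48-hour compound exposure of cells in 96-well plates, five concentrations, linear interpolation of endpoints. Abbreviation: GI50, concentration required for 50% inhibition of growth.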 Activity calls are given as the source filed them. Cut-off read from the data, not from the text of the source: active = GI50 up to about 1.1 µM and inactive = higher.

Experiments:
Test in all cases: NCI anticancer screen, dose series, 48 h
[1] = tested on: UO-31
[2] = tested on: U-251
[3] = tested on: LXFL 529
[4] = tested on: TK-10
[5] = tested on: M19-MEL
[6] = tested on: DLD-1
[7] = tested on: SF-539
[8] = tested on: RPMI-8226
[9] = tested on: SW-620
[10] = tested on: NCI-H23
[11] = tested on: MOLT-4
[12] = tested on: NCI-H226
[13] = tested on: SK-MEL-2
[14] = tested on: CCRF-CEM
[15] = tested on: EKVX
[16] = tested on: KM-20L2
[17] = tested on: RXF 393
[18] = tested on: UACC-62
[19] = tested on: NCI-H522
[20] = tested on: HCT-116
[21] = tested on: RXF 631
[22] = tested on: HOP-62
[23] = tested on: OVCAR-3
[24] = tested on: A498
[25] = tested on: COLO 205
[26] = tested on: DMS-114
[27] = tested on: IGROV-1
[28] = tested on: K562
[29] = tested on: ACHN
[30] = tested on: KM12
[31] = tested on: OVCAR-8
[32] = tested on: HOP-18
[33] = tested on: SF-268
[34] = tested on: Malme-3M
[35] = tested on: SNB-78
[36] = tested on: SN12C
[37] = tested on: A549
[38] = tested on: 786-0
[39] = tested on: LOX IMVI
[40] = tested on: OVCAR-5
[41] = tested on: SR
[42] = tested on: SK-MEL-28
[43] = tested on: DMS-273
[44] = tested on: SF-295
[45] = tested on: CAKI-1
[46] = tested on: HCC 2998
[47] = tested on: NCI-H460
[48] = tested on: HCT-15
[49] = tested on: OVCAR-4
[50] = tested on: SNB-19
[51] = tested on: HT-29
[52] = tested on: UACC-257
[53] = tested on: SK-OV-3
[54] = tested on: XF498
[55] = tested on: SK-MEL-5
[56] = tested on: M14
[57] = tested on: HL-60
[58] = tested on: HOP-92
[59] = tested on: SNB-75

CC(=O)OC1COC(N2CCc3ccccc32)C(OC(C)=O)C1OC(C)=O (stereo unspecified)
GI50 [1]: > 58.7 µM (inactive) | GI50 [2]: > 100 µM (inactive) | GI50 [3]: > 100 µM (inactive) | GI50 [4]: > 100 µM (inactive) | GI50 [5]: > 100 µM (inactive) | GI50 [6]: > 100 µM (inactive) | GI50 [7]: > 100 µM (inactive) | GI50 [8]: > 100 µM (inactive) | GI50 [9]: > 100 µM (inactive) | GI50 [10]: > 100 µM (inactive) | GI50 [11]: > 100 µM (inactive) | GI50 [12]: > 100 µM (inactive) | GI50 [13]: > 100 µM (inactive) | GI50 [14]: > 100 µM (inactive) | GI50 [15]: > 100 µM (inactive) and > 57.1 µM (inactive) | GI50 [16]: > 100 µM (inactive) | GI50 [17]: > 100 µM (inactive) | GI50 [18]: > 94.6 µM (inactive) | GI50 [19]: > 100 µM (inactive) | GI50 [20]: > 100 µM (inactive) | GI50 [21]: > 100 µM (inactive) | GI50 [22]: > 100 µM (inactive) | GI50 [23]: > 100 µM (inactive) | GI50 [24]: > 100 µM (inactive) | GI50 [25]: > 100 µM (inactive) | GI50 [26]: > 91.6 µM (inactive) | GI50 [27]: > 100 µM (inactive) | GI50 [28]: > 100 µM (inactive) | GI50 [29]: > 100 µM (inactive) | GI50 [30]: > 100 µM (inactive) | GI50 [31]: > 100 µM (inactive) | GI50 [32]: > 100 µM (inactive) | GI50 [33]: > 100 µM (inactive) | GI50 [34]: > 100 µM (inactive) | GI50 [35]: > 76.4 µM (inactive) | GI50 [36]: > 100 µM (inactive) | GI50 [37]: > 100 µM (inactive) | GI50 [38]: > 100 µM (inactive) | GI50 [39]: > 100 µM (inactive) | GI50 [40]: > 100 µM (inactive) | GI50 [41]: > 100 µM (inactive) | GI50 [42]: > 100 µM (inactive) | GI50 [43]: > 100 µM (inactive) | GI50 [44]: > 100 µM (inactive) | GI50 [45]: > 100 µM (inactive) | GI50 [46]: > 100 µM (inactive) | GI50 [47]: > 100 µM (inactive) | GI50 [48]: > 100 µM | GI50 [49]: > 100 µM (inactive) | GI50 [50]: > 100 µM (inactive) | GI50 [51]: > 100 µM (inactive) | GI50 [52]: > 100 µM (inactive) | GI50 [53]: > 100 µM (inactive) | GI50 [54]: > 100 µM (inactive) | GI50 [55]: > 100 µM (inactive) | GI50 [56]: > 100 µM (inactive)

O=C(CC1C(=O)Nc2ccccc2[S+]1[O-])Nc1ccccc1 (stereo unspecified)
GI50 [1]: 37.5 µM (inactive) | GI50 [2]: > 100 µM (inactive) | GI50 [3]: > 100 µM (inactive) | GI50 [4]: > 100 µM (inactive) | GI50 [5]: > 100 µM (inactive) | GI50 [6]: > 100 µM (inactive) | GI50 [7]: 52.7 µM (inactive) | GI50 [9]: > 100 µM (inactive) | GI50 [10]: > 100 µM (inactive) | GI50 [11]: > 100 µM (inactive) | GI50 [12]: > 100 µM (inactive) | GI50 [13]: > 100 µM (inactive) | GI50 [14]: > 100 µM (inactive) | GI50 [15]: > 100 µM (inactive) | GI50 [16]: > 100 µM (inactive) | GI50 [17]: 19.8 µM (inactive) | GI50 [18]: > 100 µM (inactive) | GI50 [19]: > 100 µM (inactive) | GI50 [20]: > 100 µM (inactive) | GI50 [21]: > 100 µM (inactive) | GI50 [22]: > 100 µM (inactive) | GI50 [23]: > 100 µM (inactive) | GI50 [24]: > 100 µM (inactive) | GI50 [25]: > 100 µM (inactive) | GI50 [26]: > 100 µM (inactive) | GI50 [57]: > 100 µM (inactive) | GI50 [58]: 53.8 µM (inactive) | GI50 [27]: > 100 µM (inactive) | GI50 [29]: 59.7 µM (inactive) | GI50 [30]: > 100 µM (inactive) | GI50 [31]: 36.4 µM (inactive) | GI50 [32]: > 100 µM (inactive) | GI50 [33]: > 100 µM (inactive) | GI50 [34]: > 100 µM (inactive) | GI50 [35]: > 100 µM (inactive) | GI50 [36]: > 100 µM (inactive) | GI50 [37]: > 100 µM (inactive) | GI50 [38]: 40.8 µM (inactive) | GI50 [40]: > 100 µM (inactive) | GI50 [41]: 17.2 µM (inactive) | GI50 [42]: > 100 µM (inactive) | GI50 [43]: > 100 µM (inactive) | GI50 [44]: > 100 µM (inactive) | GI50 [59]: 29.6 µM (inactive) | GI50 [45]: > 100 µM (inactive) | GI50 [46]: > 100 µM (inactive) | GI50 [47]: > 100 µM (inactive) | GI50 [48]: > 100 µM | GI50 [49]: > 100 µM (inactive) | GI50 [50]: > 100 µM (inactive) | GI50 [51]: > 100 µM (inactive) | GI50 [52]: > 100 µM (inactive) | GI50 [53]: 26.9 µM (inactive) | GI50 [54]: > 100 µM (inactive) | GI50 [55]: > 100 µM (inactive) | GI50 [56]: > 100 µM (inactive)

Sc1ccccc1S
GI50 [1]: > 10 µM (inactive) | GI50 [2]: > 100 µM (inactive) | GI50 [3]: > 100 µM (inactive) | GI50 [4]: > 10 µM (inactive) | GI50 [5]: > 100 µM (inactive) | GI50 [6]: > 100 µM (inactive) | GI50 [9]: > 100 µM (inactive) | GI50 [10]: > 100 µM (inactive) | GI50 [15]: > 10 µM (inactive) | GI50 [16]: > 100 µM (inactive) | GI50 [17]: > 100 µM (inactive) | GI50 [18]: > 100 µM (inactive) | GI50 [21]: > 100 µM (inactive) | GI50 [22]: > 100 µM (inactive) | GI50 [23]: > 100 µM (inactive) | GI50 [25]: > 100 µM (inactive) | GI50 [26]: > 100 µM (inactive) | GI50 [57]: > 100 µM (inactive) | GI50 [58]: > 100 µM (inactive) | GI50 [27]: > 100 µM (inactive) | GI50 [28]: > 100 µM (inactive) | GI50 [29]: > 100 µM (inactive) | GI50 [31]: > 10 µM (inactive) | GI50 [32]: > 100 µM (inactive) | GI50 [33]: > 100 µM (inactive) | GI50 [34]: > 100 µM (inactive) | GI50 [35]: > 100 µM (inactive) | GI50 [36]: > 100 µM (inactive) | GI50 [37]: > 100 µM (inactive) | GI50 [38]: > 100 µM (inactive) | GI50 [39]: > 100 µM (inactive) | GI50 [42]: > 100 µM (inactive) | GI50 [43]: > 100 µM (inactive) | GI50 [44]: > 100 µM (inactive) | GI50 [45]: > 100 µM (inactive) | GI50 [46]: > 100 µM (inactive) | GI50 [47]: > 100 µM (inactive) | GI50 [48]: > 100 µM | GI50 [49]: > 100 µM (inactive) | GI50 [50]: > 100 µM (inactive) | GI50 [51]: > 100 µM (inactive) | GI50 [53]: > 100 µM (inactive) | GI50 [54]: > 100 µM (inactive) | GI50 [56]: > 100 µM (inactive)

Cc1cc2c(C(C)C)c(O)c(O)c(C=O)c2c(O)c1-c1c(C)cc2c(C(C)C)c(O)c(O)c(C=O)c2c1O [GOSSYPOL]
GI50 [2]: 2.52 µM (inactive) | GI50 [3]: 2.74 µM (inactive) | GI50 [5]: 3.34 µM (inactive) | GI50 [6]: 3.84 µM (inactive) | GI50 [8]: 2.49 µM (inactive) | GI50 [9]: 4.59 µM (inactive) | GI50 [11]: 1.91 µM (inactive) | GI50 [15]: 2.15 µM (inactive) | GI50 [16]: 3.33 µM (inactive) | GI50 [18]: 2.36 µM (inactive) | GI50 [21]: 5.32 µM (inactive) | GI50 [23]: 3.24 µM (inactive) | GI50 [24]: 4.35 µM (inactive) | GI50 [25]: 2.63 µM (inactive) | GI50 [26]: 2.58 µM (inactive) | GI50 [28]: 3.08 µM (inactive) | GI50 [29]: 3.02 µM (inactive) | GI50 [30]: 1.97 µM (inactive) | GI50 [32]: 3.69 µM (inactive) | GI50 [34]: 5.46 µM (inactive) | GI50 [35]: 5.14 µM (inactive) | GI50 [36]: 5.09 µM (inactive) | GI50 [37]: 2.98 µM (inactive) | GI50 [42]: 4.66 µM (inactive) | GI50 [43]: 4.4 µM (inactive) | GI50 [44]: 2.37 µM (inactive) | GI50 [45]: 4.14 µM (inactive) | GI50 [48]: 3.52 µM | GI50 [50]: 3.86 µM (inactive) | GI50 [54]: 2.26 µM (inactive)
